Test results published in patent US12521395B2, “Gem-disubstituted heterocyclic compounds and their use as IDH inhibitors” (NERVIANO MEDICAL SCIENCES S.R.L., priority 2019, dated 2026).
Read-outs that look alike come from different tables or passages of the source.

How the values were obtained:
IDH1^R132C = IDH1^R132C (Homo sapiens, UniProt O75874, R132C); test: NADPH depletion assay (diaphorase/resazurin), IDH1 R132C; format: biochemical
Experimental: IDH mutated enzyme activity converting alpha-ketoglutarate to 2-hydroxyglutaric acid is measured using a NADPH depletion assay. In the assay the remaining cofactor is measured at the end of the reaction with the addition of a catalytic excess of diaphorase and resazurin, to generate a fluorescent signal in proportion to the amount of NADPH remaining. IDH1 WT enzyme as well as mutated isoforms IDH1^R132H, IDH1^R132C, and IDH2^R172K enzymes are commercially available proteins (see e.g. Sino Biological, Abcam, Active Motif or Creative BioMart).
IDH1^R132H homodimer enzyme are diluted to 8 nM, in 10 μL of Assay Buffer (150 mM NaCl, 50 mM Tris-HCl pH 7.6, 10 mM MgCl2, 0.001% Triton X-100, 4 mM β-mercaptoethanol); 0.2 μL of test compound, previously serially diluted 1 to 3, >10 experimental points from 1 mM in DMSO, is added and the mixture is incubated for 15 minutes at room temperature. The reaction is started with the addition of 10 μL of Substrate Mix (12 μM NADPH, 3.4 mM alpha-ketoglutarate in Assay Buffer) and the mixture is incubated for 60 minutes at room temperature. The reaction is terminated with the addition of 5 μl of Detection Buffer (100 μg/mL diaphorase, 30 μM resazurin, in IX Assay Buffer), and is incubated for 15 minutes before reading on a ViewLux as platereader at Ex544/Em590.
Compounds are assayed for their activity against IDH1^R132C following the same assay as above with the following modifications: IDH1^R132C and alpha-ketoglutarate final concentrations in the Assay Buffer is 2 nM and 0.14 mM, respectively.

[1] = system: cell lines HT-1080 (IDH1^R132C); test: Cellular assay: inhibition of 2HG production, LC-MS/MS; format: cell-based; conditions: Homo sapiens, 72 hr incubation, 2-HG in cell culture media, read-out: HT1080 2-HG IC50
Experimental: Cell lines HT-1080 (commercially available) are maintained in E-MEM 10% FCS and incubated at 37° C. in a humidified 5% CO2 atmosphere.
Cells are seeded into 96 well black flat bottom plates at a density of 500 cells/well in 100 μL complete medium. After 24 hr the medium is replaced with 200 μL of fresh medium and compounds (dissolved into DMSO) are administrated to the cells using D300E Digital Dispenser (Tecan).
After 72 hr of incubation 100 μL from each well are collected and used for 2HG (R(−)-2-hydroxyglutarate) quantification. Levels of 2-HG in cell culture media are determined by LC-MS/MS. Cell supernatants (100 μL/well) are treated with 1 M aqueous trichloroacetic acid containing 130 μM of the internal standard 2-HG-d3 (20 μL/well) in a 96-well plate. The plates are sealed, mildly vortexed for 60 minutes, centrifuged at 4,000 RPM for 15 minutes, placed in a refrigerated autosampler taking care not to shake them, and aliquots of the upper part of the samples are directly injected in the chromatographic system. Calibration standards are obtained by ten folds dilution of aqueous 2-HG stock solutions with blank cell culture medium and denatured exactly in the same way as described above for samples. Samples and standards are assayed for 2-HG by reversed phase chromatography on a C18 column eluted with aqueous 0.15% formic acid and briefly washed with 90% methanol at the end of the run. 2-HG is determined by negative ion electrospray ionization with the internal standard method on a triple quadrupole mass spectrometer monitoring the MRM transitions 147>129 (2-HG) and 150>132 (2-HG-d3).
2-HG inhibition was calculated by comparing treated versus control data using Assay Explore (Symyx) software, with IC50 determined using a sigmoidal fitting algorithm.

[2] = IDH1^R132C 2 nM, alpha-ketoglutarate 0.14 mM, read-out: IDH1^R132C IC50

IDH1^R132C, sequence (O75874 whole entry R132C, canonical isoform): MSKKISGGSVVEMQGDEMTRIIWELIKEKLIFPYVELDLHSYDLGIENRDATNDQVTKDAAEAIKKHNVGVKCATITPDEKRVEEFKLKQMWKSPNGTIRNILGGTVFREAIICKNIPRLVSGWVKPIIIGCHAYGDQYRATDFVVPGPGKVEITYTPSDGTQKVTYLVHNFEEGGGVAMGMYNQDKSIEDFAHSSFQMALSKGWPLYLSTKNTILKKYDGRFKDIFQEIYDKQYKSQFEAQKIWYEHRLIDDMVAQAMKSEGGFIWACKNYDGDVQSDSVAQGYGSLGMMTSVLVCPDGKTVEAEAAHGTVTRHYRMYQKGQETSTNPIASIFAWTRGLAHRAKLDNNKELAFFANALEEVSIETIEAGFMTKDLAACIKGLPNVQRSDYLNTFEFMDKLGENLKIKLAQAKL

| SMILES | IC50 (IDH1^R132C; [2]) [nM] | IC50 [1] [nM] | IC50 (IDH1^R132C) [nM] |
| --- | --- | --- | --- |
| C=CC(=O)N1CCN(C2(c3ccc([C@@H](C)Nc4ncc5ccc(=O)n(C(C)C)c5n4)cc3)CCOCC2)CC1 [cpd 9, 2-{[(1R)-1-{4-[4-(4-acryloylpiperazin-1-yl)tetrahydro-2H-pyran-4-yl]phenyl}ethyl]amino}-8-(propan-2-yl)pyrido[2,3-d]pyrimidin-7(8H)-one] | 125 | 67 |  |
| C=CC(=O)N1CCN(C2(c3ccc([C@H](C)Nc4ncc5ccc(=O)n(C(C)C)c5n4)cn3)CCOCC2)CC1 [cpd 12, 2-{[(1S)-1-{6-[4-(4-acryloylpiperazin-1-yl)tetrahydro-2H-pyran-4-yl]pyridin-3-yl}ethyl]amino}-8-(propan-2-yl)pyrido[2,3-d]pyrimidin-7(8H)-one] | 117 | 34 |  |
| C=CC(=O)N1CCN(C2(c3ccc([C@H](C)Nc4ncc5ccc(=O)n(CC)c5n4)cc3)CCOCC2)CC1 [cpd 14, 2-{[(1S)-1-{4-[4-(4-acryloylpiperazin-1-yl)tetrahydro-2H-pyran-4-yl]phenyl}ethyl]amino}-8-ethylpyrido[2,3-d]pyrimidin-7(8H)-one] | 4.4 | 4.8 |  |
| C=CC(=O)N1CCN(C2(c3ccc([C@H](C)Nc4ncc5c(C)cc(=O)n(C6CCCC6)c5n4)cc3)CCOCC2)CC1 [cpd 15, 2-{[(1S)-1-{4-[4-(4-acryloylpiperazin-1-yl)tetrahydro-2H-pyran-4-yl]phenyl}ethyl]amino}-8-cyclopentyl-5-methylpyrido[2,3-d]pyrimidin-7(8H)-one] | 24.7 | 9 |  |
| C=CC(=O)N1CCN(C2(c3ccc([C@H](C)Nc4ncc5ccc(=O)n(C(C)C)c5n4)cc3)CCCC2)CC1 [cpd 16, 2-{[(1S)-1-{4-[1-(4-acryloylpiperazin-1-yl)cyclopentyl]phenyl}ethyl]amino}-8-(propan-2-yl)pyrido[2,3-d]pyrimidin-7(8H)-one] | 1.3 | 0.3 |  |
| C=CC(=O)N1CCN(C2(c3ccc([C@H](C)Nc4ncc5ccc(=O)n(C(C)C)c5n4)cc3)CCOC2)CC1 (stereo partly drawn) [cpd 17, 2-{[(1S)-1-{4-[3-(4-acryloylpiperazin-1-yl)tetrahydrofuran-3-yl]phenyl}ethyl]amino}-8-(propan-2-yl)pyrido[2,3-d]pyrimidin-7(8H)-one] | 25.7 | 4.9 |  |
| C=CC(=O)N1CCN(C2(c3ccc([C@H](C)Nc4nc(N)c5ccc(=O)n(C(C)C)c5n4)cc3)CCOCC2)CC1 [cpd 19, 2-{[(1S)-1-{4-[4-(4-acryloylpiperazin-1-yl)tetrahydro-2H-pyran-4-yl]phenyl}ethyl]amino}-4-amino-8-(propan-2-yl) pyrido[2,3-d]pyrimidin-7(8H)-one] | 3.1 | 3 |  |
| C=CC(=O)N1CCN(C2(c3ccc([C@H](C)Nc4ncc5ccc(=O)n(C(C)C)c5n4)cc3)CCCCC2)CC1 [cpd 20, 2-{[(1S)-1-{4-[1-(4-acryloylpiperazin-1-yl)cyclohexyl]phenyl}ethyl]amino}-8-(propan-2-yl)pyrido[2,3-d]pyrimidin-7(8H)-one] |  | 1 | 1 |
| CC(C)n1c(=O)ccc2cnc(N[C@@H](C)c3ccc(C4(N5CCN(C(=O)CCl)CC5)CCOCC4)cc3)nc21 [cpd 22, 2-{[(1S)-1-(4-{4-[4-(chloroacetyl)piperazin-1-yl]tetrahydro-2H-pyran-4-yl}phenyl)ethyl]amino}-8-(propan-2-yl) pyrido[2,3-d]pyrimidin-7(8H)-one] | 8 | 121 |  |
| CC(C)n1c(=O)ccc2cnc(N[C@@H](C)c3ccc(C4(N5CCN(C(=O)CCCl)CC5)CCOCC4)cc3)nc21 [cpd 23, 2-{[(1S)-1-(4-{4-[4-(3-chloropropanoyl)piperazin-1-yl]tetrahydro-2H-pyran-4-yl}phenyl)ethyl]amino}-8-(propan-2-yl) pyrido[2,3-d]pyrimidin-7(8H)-one] | 1460 | 122 |  |
| C=CC(=O)N1CCN(C2(c3ccc([C@H](C)Nc4ncc5c(n4)N(CC)C(=O)OC5)cc3)CCOCC2)CC1 [cpd 24, 7-{[(1S)-1-{4-[4-(4-acryloylpiperazin-1-yl)tetrahydro-2H-pyran-4-yl]phenyl}ethyl]amino}-1-ethyl-1,4-dihydro-2H-pyrimido[4,5-d][1,3]oxazin-2-one] | 3 | 2.1 |  |

The next lines start with results.

| IC50 (IDH1^R132C; [2]) [nM] | IC50 [1] [nM] | SMILES | IC50 (IDH1^R132C) [nM] |
| --- | --- | --- | --- |
| 26 | 47 | C=CC(=O)N1CC(N(C)C2(c3ccc([C@H](C)Nc4ncc5ccc(=O)n(C(C)C)c5n4)cc3)CCOCC2)C1 [cpd 28, 2-{[(1S)-1-(4-{4-[(1-acryloylazetidin-3-yl)(methyl)amino]tetrahydro-2H-pyran-4-yl}phenyl)ethyl]amino}-8-(propan-2-yl) pyrido[2,3-d]pyrimidin-7(8H)-one] |  |
| 48 | 7.5 | C=CC(=O)N1CCN(C2(c3ccc(C4(Nc5ncc6ccc(=O)n(C(C)C)c6n5)CC4)cc3)CCOCC2)CC1 [cpd 30, 2-[(1-{4-[4-(4-acryloylpiperazin-1-yl)tetrahydro-2H-pyran-4-yl]phenyl}cyclopropyl)amino]-8-(propan-2-yl)pyrido[2,3-d]pyrimidin-7(8H)-one] |  |
| 18 | 14.8 | C=CC(=O)N1CCN(C2(c3ccc(C(C)(C)Nc4ncc5ccc(=O)n(C(C)C)c5n4)cc3)CCOCC2)CC1 [cpd 40, 2-[(2-{4-[4-(4-acryloylpiperazin-1-yl)tetrahydro-2H-pyran-4-yl]phenyl}propan-2-yl)amino]-8-(propan-2-yl)pyrido[2,3-d]pyrimidin-7(8H)-one] |  |
| 15 | 3 | C=CC(=O)N1CCN([C@@](C)(CN2CCOCC2)c2ccc([C@H](C)Nc3ncc4ccc(=O)n(C(C)C)c4n3)cc2)CC1 [cpd 43, 2-{[(1S)-1-{4-[(2R)-2-(4-acryloylpiperazin-1-yl)-1-(morpholin-4-yl)propan-2-yl]phenyl}ethyl]amino}-8-(propan-2-yl) pyrido[2,3-d]pyrimidin-7(8H)-one] |  |
| 9 | 4 | C=CC(=O)N1CCN(C2(c3ccc([C@H](C)Nc4cc5c(cn4)COC(=O)N5CC)cc3)CCOCC2)CC1 [cpd 44, 7-{[(1S)-1-{4-[4-(4-acryloylpiperazin-1-yl)tetrahydro-2H-pyran-4-yl]phenyl}ethyl]amino}-1-ethyl-1,4-dihydro-2H-pyrido[4,3-d][1,3]oxazin-2-one] |  |
| 47 | 65 | C=CC(=O)N1CC(N(C)C2(c3ccc([C@H](C)Nc4cc5c(ccc(=O)n5C(C)C)cn4)cc3)CCOCC2)C1 [cpd 48, 7-{[(1S)-1-(4-{4-[(1-acryloylazetidin-3-yl)(methyl)amino]tetrahydro-2H-pyran-4-yl}phenyl)ethyl]amino}-1-(propan-2-yl)-1,6-naphthyridin-2(1H)-one] |  |
| 17 | 3 | C=CC(=O)N1CCN(C2(c3ccc(C4(Nc5ncc6ccc(=O)n(C(C)C)c6n5)CC4)cc3)CCCC2)CC1 [cpd 49, 2-[(1-{4-[1-(4-acryloylpiperazin-1-yl)cyclopentyl]phenyl}cyclopropyl)amino]-8-(propan-2-yl)pyrido[2,3-d]pyrimidin-7(8H)-one] |  |
| 7 | 2.4 | [2H]C([2H])=C([2H])C(=O)N1CCN(C2(c3ccc([C@H](C)Nc4ncc5ccc(=O)n(C(C)C)c5n4)cc3)CCOCC2)CC1 [cpd 51, 8-(propan-2-yl)-2-({(1S)-1-[4-(4-{4-[(^2H3)prop-2-enoyl]piperazin-1-yl}tetrahydro-2H-pyran-4-yl)phenyl]ethyl}amino) pyrido[2,3-d]pyrimidin-7(8H)-one] |  |
